# Data published in patent US4107424A, “1-N-[(S)-α-hydroxy-ω-aminoacyl] derivatives of 3',4'-dideoxykanamycin B and 3'-deoxykanamycin B antibiotics” (Zaidan Hojin Biseibutsu Kagaku Kenkyu Kai, priority 1972, dated 1978).
# Where two headings read alike, the source gives them in different places.
# Legend:
# [1] = tested on: Bacillus subtilis NRRL B-558; experiment: Minimal inhibitory concentration, agar dilution streak method; format: cell-based; settings: NRRLB558, nutrient agar, 37° C, 18 hours
# Experimental: (§1) [α]D^22 + 38°, (c 0.85, water).
# (§2) *Agar Agar dilution streak method (nutrient agar, 37° C, 18 hours)
# (§3) *Agar dilution streak method (nutrient agar, 37° C, 18 hours).
# [2] = tested on: Escherichia coli J 5 R 11-2; experiment: as above; format: cell-based; settings: J5R112, 18 h, read-out: Minimal inhibitory concentration
# Experimental: as §1, §2, §3
# [3] = tested on: Escherichia coli K-12 C 600 R 135; experiment: as above; format: cell-based; settings: 18 h, read-out: Minimal inhibitory concentration
# Experimental: as §1, §2, §3
# [4] = tested on: Escherichia coli K-12 R-5; experiment: as above; format: cell-based; settings: K12R5, nutrient agar, 37° C, 18 hours
# Experimental: as §1, §2, §3
# Escherichia coli NIHJ = experiment: as above; format: cell-based; settings: nutrient agar, 37° C, 18 hours
# Experimental: as §1, §2, §3
# [5] = tested on: Klebsiella pneumoniae PCI 602; experiment: as above; format: cell-based; settings: PCI602, nutrient agar, 37° C, 18 hours
# Experimental: as §1, §2, §3
# Proteus rettgeri GN 311 = experiment: as above; format: cell-based; settings: Providencia rettgeri, GN311; nutrient agar, 37° C, 18 hours
# Experimental: as §1, §2, §3
# Proteus rettgeri GN 466 = experiment: as above; format: cell-based; settings: Providencia rettgeri, GN466; nutrient agar, 37° C, 18 hours
# Experimental: as §1, §2, §3
# [6] = tested on: Pseudomonas aeruginosa 99; experiment: as above; format: cell-based; settings: nutrient agar, 37° C, 18 hours, read-out: Minimal inhibitory concentration
# Experimental: as §1, §2, §3
# Salmonella typhosa T-63 = experiment: as above; format: cell-based; settings: Salmonella enterica, nutrient agar, 37° C, 18 hours
# Experimental: as §1, §2, §3
# Sarcina lutea PCI 1001 = experiment: as above; format: cell-based; settings: Micrococcus luteus, PCI1001; nutrient agar, 37° C, 18 hours; read-out: Minimal inhibitory concentration
# Experimental: as §1, §2, §3
# [7] = tested on: Escherichia coli K-12 JR 66/W 677; experiment: as above; format: cell-based; settings: for MIC: Escherichia coli, 18 h; for effectiveness against Escherichia coli K-12 JR 66/W 677: strain resistant to butirosin B
# Experimental: as §2, §3
# [8] = tested on: Escherichia coli K-12 LA 290 R 55; experiment: as above; format: cell-based; settings: 18 h
# Experimental: as §2, §3
# [9] = tested on: Escherichia coli K-12 LA 290 R 56; experiment: as above; format: cell-based; settings: 18 h, read-out: Minimal inhibitory concentration
# Experimental: as §2, §3
# [10] = tested on: Escherichia coli K-12 LA 290 R 64; experiment: as above; format: cell-based; settings: nutrient agar, 37° C, 18 hours, read-out: Minimal inhibitory concentration
# Experimental: as §2, §3
# [11] = tested on: Escherichia coli K-12 ML 1410 R 81; experiment: as above; format: cell-based; settings: 18 h, read-out: Minimal inhibitory concentration
# Experimental: as §2, §3
# [12] = tested on: Escherichia coli K-12 ML 1410; experiment: as above; format: cell-based; settings: K12ML1410, nutrient agar, 37° C, 18 hours, read-out: Minimal inhibitory concentration
# Experimental: as §2, §3
# [13] = tested on: Escherichia coli K-12 ML 1629; experiment: as above; format: cell-based; settings: K12ML1629, nutrient agar, 37° C, 18 hours
# Experimental: as §2, §3
# [14] = tested on: Escherichia coli K-12 ML 1630; experiment: as above; format: cell-based; settings: K12ML1630, nutrient agar, 37° C, 18 hours, read-out: Minimal inhibitory concentration
# Experimental: as §2, §3
# [15] = tested on: Escherichia coli K-12 W 677; experiment: as above; format: cell-based; settings: K12W677, nutrient agar, 37° C, 18 hours, read-out: Minimal inhibitory concentration
# Experimental: as §2, §3
# Escherichia coli K-12 = experiment: as above; format: cell-based; settings: K12, nutrient agar, 37° C, 18 hours, read-out: Minimal inhibitory concentration
# Experimental: as §2, §3
# [16] = tested on: Klebsiella pneumoniae type 22 #3038; experiment: as above; format: cell-based; settings: for MIC: Klebsiella pneumoniae, nutrient agar, 37° C, 18 hours; for effectiveness against Klebsiella pneumoniae type 22 #3038: strain resistant to butirosin B
# Experimental: as §2, §3
# [17] = tested on: Pseudomonas aeruginosa A 3; experiment: as above; format: cell-based; settings: A3, nutrient agar, 37° C, 18 hours, read-out: Minimal inhibitory concentration
# Experimental: as §2, §3
# [18] = tested on: Pseudomonas aeruginosa GN 315; experiment: as above; format: cell-based; settings: GN315, nutrient agar, 37° C, 18 hours
# Experimental: as §2, §3
# [19] = tested on: Pseudomonas aeruginosa No.12; experiment: as above; format: cell-based; settings: nutrient agar, 37° C, 18 hours, read-out: Minimal inhibitory concentration
# Experimental: as §2, §3
# [20] = tested on: Pseudomonas aeruginosa TI-13; experiment: as above; format: cell-based; settings: TI13, nutrient agar, 37° C, 18 hours, read-out: Minimal inhibitory concentration
# Experimental: as §2, §3
# [21] = tested on: Staphylococcus aureus FDA 209P; experiment: as above; format: cell-based; settings: FDA209P, nutrient agar, 37° C, 18 hours, read-out: Minimal inhibitory concentration
# Experimental: as §2, §3
# [22] = tested on: Mycobacterium smegmatis ATCC 607; experiment: as above; format: cell-based; settings: Mycolicibacterium smegmatis, ATCC607; nutrient agar, 37° C, 48 hours; read-out: Minimal inhibitory concentration
# [23] = tested on: kanamycin-resistant strains; settings: cited from earlier work; for activity against kanamycin-resistant strains: strains producing 3'-hydroxyl phosphorylating enzyme
# [24] = tested on: gram-positive and gram-negative bacteria; experiment: Antibacterial activity (in words); format: cell-based; settings: for antibacterial activity compared with parent or reference substance: sensitive (and resistant) bacteria
# Experimental: as §1
# in vivo = settings: mouse, iv
# mice = experiment: Acute intravenous toxicity (LD50) in mice; settings: in words
# [25] = read-out: Minimal inhibitory concentration
# [26] = read-out: minimum inhibitory concentrations
# [27] = drug-resistant strain, read-out: minimum inhibitory concentrations
Compound,MIC [1] [µg/mL],MIC [2] [µg/mL],MIC [3] [µg/mL],MIC [4] [µg/mL],MIC (Escherichia coli NIHJ) [µg/mL],MIC [5] [µg/mL],MIC (Proteus rettgeri GN 311) [µg/mL],MIC (Proteus rettgeri GN 466) [µg/mL],MIC [6] [µg/mL],MIC (Salmonella typhosa T-63) [µg/mL],MIC (Sarcina lutea PCI 1001) [µg/mL],"MIC [8, 25] [µg/mL]",MIC [9] [µg/mL],MIC [10] [µg/mL],"MIC [13, 25] [µg/mL]",MIC [14] [µg/mL],MIC [15] [µg/mL],MIC [16] [µg/mL],MIC [17] [µg/mL],"MIC [18, 25] [µg/mL]",further results
"NC[C@@H]1CC[C@@H](N)[C@@H](O[C@H]2[C@H](O)[C@@H](O)[C@H](N)C[C@@H]2N)O1 [3',4'-dideoxyneamine]",0.39,6.25,12.5,50,12.5,25,50,25,50,3.12,50,6.25,6.25,12.5,12.5,12.5,6.25,25,25,> 100,"MIC [7, 25]: 25 µg/mL; MIC [11]: 25 µg/mL; MIC [12]: 6.25 µg/mL; MIC (Escherichia coli K-12): 6.25 µg/mL; MIC [19]: 25 µg/mL; MIC [20]: 25 µg/mL; MIC [21]: 6.25 µg/mL; MIC [22]: 25 µg/mL; activity against kanamycin-resistant strains [23]: actually effective"
"NC[C@H]1O[C@H](O[C@H]2[C@H](O)[C@@H](O)[C@H](N)C[C@@H]2N)[C@H](N)[C@@H](O)[C@@H]1O [Neamine, neamine]",0.78,> 100,12.5,> 100,12.5,12.5,100,25,> 100,3.12,> 100,5.25,12.5,6.25,> 100,> 100,6.25,> 100,> 100,> 100,"MIC [7, 25]: > 100 µg/mL; MIC [11]: > 100 µg/mL; MIC [12]: 12.5 µg/mL; MIC (Escherichia coli K-12): 6.25 µg/mL; MIC [19]: > 100 µg/mL; MIC [20]: > 100 µg/mL; MIC [21]: 6.25 µg/mL; MIC [22]: 12.5 µg/mL"
"NCC[C@H](O)C(=O)N[C@@H]1C[C@H](N)[C@@H](O[C@H]2O[C@H](CN)CC[C@H]2N)[C@H](O)[C@H]1O [AHB-dideoxyneamine, 1-N-[(S)-4-amino-2-hydroxybutyryl]-3',4'-dideoxyneamine]",< 0.39,6.25,12.5,50,3.12,6.25,25,12.5,25,1.56,25,3.12,3.12,3.12,3.12,3.12,3.12,12.5,6.25,> 100,"MIC [7, 25]: 12.5 µg/mL; MIC [19]: 6.25 µg/mL; MIC [20]: 6.25 µg/mL; MIC [22]: 6.25 µg/mL; antibacterial activity compared with parent or reference substance [24]: higher antibacterial activity than that of the parent substance, 3',4'-dideoxyneamine, against both sensitive and resistant bacteria; antibacterial activity ([24]; various gram-positive and gram-negative bacteria, including resistant strains): exhibits a antibacterial activity against various gram-positive and gram-negative bacteria, including the kanamycin-resistant strains; LD50 (in vivo): > 100 mg/kg; toxicity (mice): lower toxicity to animals and men"
"NCC[C@H](O)C(=O)N[C@@H]1C[C@H](N)[C@@H](O[C@H]2O[C@H](CN)[C@@H](O)[C@H](O)[C@H]2N)[C@H](O[C@@H]2O[C@H](CO)[C@@H](O)[C@H]2O)[C@H]1O [Butirosin B, 1-N-[(S)-α-hydroxy-γ-amino-n-butyryl]-ribostamycin]",0.39,1.56,0.78,6.25,3.12,0.78,6.25,3.12,50,0.39,50,0.78,0.78,0.78,1.56,1.56,0.39,> 100,3.12,> 100,"MIC [7, 25]: > 100 µg/mL; effectiveness against Escherichia coli K-12 JR 66/W 677 [7]: resistant to butirosin B; MIC [11]: 3.12 µg/mL; MIC [12]: 0.78 µg/mL; MIC (Escherichia coli K-12): 0.78 µg/mL; effectiveness against Klebsiella pneumoniae type 22 #3038 [16]: resistant to butirosin B; MIC [19]: 6.25 µg/mL; MIC [20]: 25 µg/mL; MIC [21]: 1.56 µg/mL; MIC [22]: 0.78 µg/mL; activity against kanamycin- and ribostamycin-resistant bacteria [23]: active against some kanamycin- and ribostamycin-resistant bacteria"
NCC1OC(OC2C(N)CC(N)C(OC3OC(CO)C(O)C(N)C3O)C2O)C(O)CC1O (stereo not drawn) [3'-deoxykanamycin],,,,,,,,,,,,,,,,,,,,,activity against kanamycin-resistant strains [23]: actually effective
"NCC[C@H](O)C(=O)N[C@@H]1C[C@H](N)[C@@H](O[C@H]2O[C@H](CN)CC[C@H]2N)[C@H](O[C@@H]2O[C@H](CO)[C@@H](O)[C@H]2O)[C@H]1O [AHB-dideoxyribostamycin, 1-N-[(S)-4-amino-2-hydroxybutyryl]-3',4'-dideoxyribostamycin]",< 0.39,< 0.39,0.78,6.25,1.56,0.78,12.5,3.12,25,0.39,25,1.56,< 0.39,1.56,1.56,0.78,0.78,3.12,6.25,> 100,"effectiveness against Escherichia coli K-12 JR 66/W 677 [7]: effective; MIC [11]: 1.56 µg/mL; MIC [12]: 0.78 µg/mL; MIC (Escherichia coli K-12): 1.56 µg/mL; effectiveness against Klebsiella pneumoniae type 22 #3038 [16]: effective; MIC [19]: 6.25 µg/mL; MIC [20]: 12.5 µg/mL; MIC [21]: 1.56 µg/mL; MIC [22]: < 0.39 µg/mL; antibacterial activity compared with parent or reference substance [24]: strongly enhanced antibacterial activity as compared with that of ribostamycin and 3',4'-dideoxyribostamycin and was comparable to that of butirosin B; LD50 (in vivo): > 100 mg/kg"
NC[C@H]1O[C@H](O[C@H]2[C@H](O)[C@@H](O)[C@H](N)C[C@@H]2N)[C@H](N)C[C@@H]1O [3'-deoxyneamine],,,,,,,,,,,,,,,,,,,,,"MIC [7, 26]: > 100 µg/mL; MIC [8, 26]: 100 µg/mL; MIC [13, 27]: 6.25 µg/mL; MIC [18, 27]: > 100 µg/mL; activity against kanamycin-resistant strains [23]: actually effective"
